Data taken from ChEMBL document CHEMBL6092174, “Synthesis and anti-influenza virus activity of substituted dibenzoxepine-based baloxavir derivatives” (Eur J Med Chem, 2024).
Calls of active or inactive are those of the source. No cut-off for these calls is given here.

What was measured:
[1] = Cytotoxicity against dog MDCK cells assessed as reduction in cell viability incubated for 2 days by CCK-8 assay; format: toxicity, cell-based, Canis lupus familiaris; details: time 2 day
Influenza A virus [2] = experiment: Antiviral activity against Influenza A virus H1N1(A/Puetro Rico/8/34) infected in dog MDCK cells assessed as reduction in cytopathic effect incubated for 2 days; format: functional, organism-based; details: 48 h
[3] = Metabolic stability in human liver microsomes assessed as intrinsic clearance at 1 uM incubated for 60 mins in presence of NADPH by LC-MS/MS analysis; format: ADME, Microsome; details: 1 h
[4] = Tmax in CD-1 mouse at 1 mg/kg, iv measured upto 24 hrs by LC-MS/MS analysis; format: ADME, organism-based; details: in vivo
[5] = Half life in CD-1 mouse at 15 mg/kg, po measured upto 24 hrs by LC-MS/MS analysis; format: ADME, organism-based; details: in vivo
[6] = MRT (0 to infinity) in CD-1 mouse at 1 mg/kg, iv measured upto 24 hrs by LC-MS/MS analysis; format: ADME, organism-based; details: in vivo
[7] = Tmax in CD-1 mouse at 15 mg/kg, po measured upto 24 hrs by LC-MS/MS analysis; format: ADME, organism-based; details: in vivo
[8] = Cmax in CD-1 mouse at 15 mg/kg, po measured upto 24 hrs by LC-MS/MS analysis; format: ADME, organism-based; details: in vivo
[9] = Metabolic stability in human liver microsomes assessed as half life at 1 uM in presence of NADPH by LC-MS/MS analysis; format: ADME, Microsome; details: time 60 min
HEK293T [10] = experiment: Inhibition of Influenza A virus RdRp transfected in HEK293T co-expressing PB1/PB2/PA/NP/firefly luciferase/Renilla luciferase at 1 nM incubated for 24 hrs relative to control; format: cell-based
[11] = Half life in CD-1 mouse at 1 mg/kg, iv measured upto 24 hrs by LC-MS/MS analysis; format: ADME, organism-based; details: in vivo
Influenza B virus = experiment: Antiviral activity against Influenza B virus IBV/Lee/40 infected in dog MDCK cells assessed as reduction in cytopathic effect incubated for 2 days by TCID50 method; format: functional, organism-based; details: IBV/Lee/40, MDCK, 48 h
[12] = MRT (0 to infinity) in CD-1 mouse at 15 mg/kg, po measured upto 24 hrs by LC-MS/MS analysis; format: ADME, organism-based; details: in vivo
[13] = Cmax in CD-1 mouse at 1 mg/kg, iv measured upto 24 hrs by LC-MS/MS analysis; format: ADME, organism-based; details: in vivo
[14] = Metabolic stability in mouse liver microsomes assessed as half life at 1 uM in presence of NADPH by LC-MS/MS analysis; format: ADME, Microsome; details: time 60 min
[15] = Metabolic stability in mouse liver microsomes assessed as intrinsic clearance at 1 uM incubated for 60 mins in presence of NADPH by LC-MS/MS analysis; format: ADME, Microsome; details: 1 h
[16] = Selectivity index, ratio of CC50 for cytotoxicty against MDCK cells to EC50 for antiviral activity against Influenza A virus H3N2 (A/Aichi/2/68) infected in dog MDCK cells; format: toxicity, cell-based; details: read-out: Selectivity Index
Influenza A virus [17] = experiment: Antiviral activity against Influenza A virus H3N2 (A/Aichi/2/68) infected in dog MDCK cells assessed as reduction in cytopathic effect incubated for 2 days; format: functional, organism-based; details: 48 h
[18] = AUC (0 to infinity) in CD-1 mouse at 15 mg/kg, po measured upto 24 hrs by LC-MS/MS analysis; format: ADME, organism-based; details: in vivo
[19] = Oral bioavailability in CD-1 mouse at 15 mg/kg measured upto 24 hrs by LC-MS/MS analysis; format: ADME, organism-based; details: in vivo
Influenza A virus [20] = experiment: Potency index, ratio of baloxavir EC50 to test compound EC50 for antiviral activity against Influenza A virus H3N2 (A/Aichi/2/68) infected in dog MDCK cells assessed as reduction in cytopathic effect incubated for 2 days; format: functional; details: time 2 day
[21] = AUC (0 to infinity) in CD-1 mouse at 1 mg/kg, iv measured upto 24 hrs by LC-MS/MS analysis; format: ADME, organism-based; details: in vivo
HEK293T [22] = experiment: Inhibition of Influenza A virus RdRp transfected in HEK293T co-expressing PB1/PB2/PA/NP/firefly luciferase/Renilla luciferase incubated for 24 hrs relative to control; format: cell-based; details: dose or concentration not given here
Influenza A virus [23] = experiment: Antiviral activity against Influenza A virus H1N1(A/FM/1/47) infected in dog MDCK cells assessed as reduction in cytopathic effect incubated for 2 days; format: functional, organism-based; details: 48 h
Influenza A virus [24] = experiment: Antiviral activity against Influenza A virus H1N1 infected in dog MDCK cells assessed as disruption of nuclear protein expression at 10 to 20 nM by Western blot analysis; format: functional, organism-based; details: dose 10-20 nM
Influenza A virus [25] = experiment: Antiviral activity against Influenza A virus H1N1 infected in dog MDCK cells assessed as reduction in polymerase acidic protein expression at 10 to 20 nM by Western blot analysis; format: functional, organism-based; details: dose 10-20 nM

Structure (SMILES): O=C1c2c(O)c(=O)ccn2N([C@@H]2c3ccccc3SCc3c2ccc(F)c3F)[C@@H]2COCCN12 [BALOXAVIR]
- CC50 at 48 h [1]: 9.3 µM
- EC50 (Influenza A virus [2]): 1.85 nM
- CLint [3]: 7.6 µL/min/mg
- Tmax [4]: 4.8 min
- half-life [5]: 227 min
- MRT inf [6]: 3 h
- Tmax [7]: 1.67 h
- Cmax [8]: 523 ng/mL
- half-life at 1 µM [9]: 182 min
- inhibition (HEK293T [10]): 76.9%
- half-life [11]: 168 min
- EC50 (Influenza B virus): 2.02 nM
- MRT inf [12]: 4.63 h
- Cmax [13]: 205 ng/mL
- half-life at 1 µM [14]: 161 min
- CLint [15]: 8.6 µL/min/mg

Structure (SMILES): N#Cc1ccc2c(c1)COc1ccccc1[C@H]2N1[C@@H]2COCCN2C(=O)c2c(O)c(=O)ccn21
- selectivity ratio [16]: > 5300
- CC50 at 48 h [1]: > 50 µM
- EC50 (Influenza A virus [17]): 9.43 nM

Structure (SMILES): O=C1c2c(O)c(=O)ccn2N([C@@H]2c3ccccc3OCc3c2ccc(F)c3F)[C@@H]2COCCN12
- selectivity ratio [16]: 11400
- CC50 at 48 h [1]: 19.1 µM
- EC50 (Influenza A virus [17]): 1.68 nM

Structure (SMILES): O=C1c2c(O)c(=O)ccn2N([C@@H]2c3ccccc3COc3ccccc32)[C@@H]2COCCN12
- selectivity ratio [16]: > 28600
- CC50 at 48 h [1]: > 50 µM
- EC50 (Influenza A virus [17]): 1.75 nM

Structure (SMILES): O=C1c2c(O)c(=O)ccn2N([C@@H]2c3ccccc3COc3cc(C(F)(F)F)ccc32)[C@@H]2COCCN12
- selectivity ratio [16]: > 2910
- CC50 at 48 h [1]: > 50 µM
- EC50 (Influenza A virus [17]): 17.2 nM

Structure (SMILES): CCOC(=O)Cc1ccc2c(c1)[C@@H](N1[C@@H]3COCCN3C(=O)c3c(O)c(=O)ccn31)c1ccccc1CO2
- selectivity ratio [16]: > 71
- CC50 at 48 h [1]: > 50 µM
- EC50 (Influenza A virus [17]): 705 nM

Structure (SMILES): O=C1c2c(O)c(=O)ccn2N([C@H]2c3ccccc3OCc3c2ccc(F)c3F)[C@@H]2COCCN12
- selectivity ratio [16]: 15900
- CC50 at 48 h [1]: 33 µM
- EC50 (Influenza A virus [17]): 2.08 nM

Structure (SMILES): O=C1c2c(O)c(=O)ccn2N([C@H]2c3ccccc3OCc3c(F)cccc32)[C@@H]2COCCN12
- selectivity ratio [16]: > 6390
- CC50 at 48 h [1]: > 50 µM
- EC50 (Influenza A virus [17]): 7.82 nM

Structure (SMILES): O=C1c2c(O)c(=O)ccn2N([C@H]2c3ccccc3COc3cc(F)ccc32)[C@@H]2COCCN12
- selectivity ratio [16]: > 42700
- CC50 at 48 h [1]: > 50 µM
- EC50 (Influenza A virus [17]): 1.17 nM

Structure (SMILES): N#Cc1ccc2c(c1)COc1ccccc1[C@@H]2N1[C@@H]2COCCN2C(=O)c2c(O)c(=O)ccn21
- selectivity ratio [16]: > 5690
- CC50 at 48 h [1]: > 50 µM
- EC50 (Influenza A virus [17]): 8.79 nM

Structure (SMILES): O=C1c2c(O)c(=O)ccn2N([C@H]2c3ccccc3OCc3c(Cl)cccc32)[C@@H]2COCCN12
- selectivity ratio [16]: 23200
- CC50 at 48 h [1]: 15.6 µM
- EC50 (Influenza A virus [17]): 0.67 nM

Structure (SMILES): O=C1c2c(O)c(=O)ccn2N([C@@H]2c3ccccc3OCc3c(Cl)cccc32)[C@@H]2COCCN12
- selectivity ratio [16]: 31600
- CC50 at 48 h [1]: 24.7 µM
- EC50 (Influenza A virus [2]): 14.4 nM
- CLint [3]: 9 µL/min/mg
- Tmax [4]: 4.8 min
- half-life [5]: 267 min
- MRT inf [6]: 2.57 h
- EC50 (Influenza A virus [17]): 0.78 nM
- AUC(0-inf) [18]: 1680 ng·h/mL
- bioavailability [19]: 31.5%
- Tmax [7]: 2.67 h
- Ratio (Influenza A virus [20]): >5
- Cmax [8]: 222 ng/mL
- AUC(0-inf) [21]: 355 ng·h/mL
- inhibition (HEK293T [22]): 72%
- half-life at 1 µM [9]: 154 min
- EC50 (Influenza A virus [23]): 6.1 nM
- half-life [11]: 119 min
- EC50 (Influenza B virus): 2.32 nM
- MRT inf [12]: 6.25 h
- Activity (Influenza A virus [24]): Active
- Cmax [13]: 258 ng/mL
- Activity (Influenza A virus [25]): Active
- half-life at 1 µM [14]: 136 min
- CLint [15]: 10.2 µL/min/mg

Structure (SMILES): O=C1c2c(O)c(=O)ccn2N([C@H]2c3ccccc3COc3cc(C(F)(F)F)ccc32)[C@@H]2COCCN12
- selectivity ratio [16]: > 2010
- CC50 at 48 h [1]: > 50 µM
- EC50 (Influenza A virus [17]): 24.9 nM

Structure (SMILES): O=C1c2c(O)c(=O)ccn2N([C@@H]2c3ccccc3COc3cc(F)ccc32)[C@@H]2COCCN12
- selectivity ratio [16]: > 12800
- CC50 at 48 h [1]: > 50 µM
- EC50 (Influenza A virus [17]): 3.91 nM

Structure (SMILES): O=C1c2c(O)c(=O)ccn2N([C@@H]2c3ccccc3COc3c2ccc(F)c3F)[C@@H]2COCCN12
- selectivity ratio [16]: 13500
- CC50 at 48 h [1]: 22.1 µM
- EC50 (Influenza A virus [17]): 1.64 nM

Structure (SMILES): O=C1c2c(O)c(=O)ccn2N([C@@H]2c3ccc(F)cc3COc3ccccc32)[C@@H]2COCCN12
- selectivity ratio [16]: 14100
- CC50 at 48 h [1]: 35.2 µM
- EC50 (Influenza A virus [17]): 2.5 nM

Structure (SMILES): O=C1c2c(O)c(=O)ccn2N([C@H]2c3ccc(F)cc3COc3ccccc32)[C@@H]2COCCN12
- selectivity ratio [16]: > 64100
- CC50 at 48 h [1]: > 50 µM
- EC50 (Influenza A virus [2]): 3.32 nM
- CLint [3]: 2 µL/min/mg
- Tmax [4]: 4.8 min
- half-life [5]: 170 min
- MRT inf [6]: 2.91 h
- EC50 (Influenza A virus [17]): 0.78 nM
- AUC(0-inf) [18]: 2790 ng·h/mL
- bioavailability [19]: 54.3%
- Tmax [7]: 1.33 h
- Ratio (Influenza A virus [20]): >5
- Cmax [8]: 548 ng/mL
- AUC(0-inf) [21]: 343 ng·h/mL
- inhibition (HEK293T [22]): 82.6%
- half-life at 1 µM [9]: 693 min
- EC50 (Influenza A virus [23]): 1.65 nM
- half-life [11]: 156 min
- EC50 (Influenza B virus): 2.12 nM
- MRT inf [12]: 4 h
- Activity (Influenza A virus [24]): Active
- Cmax [13]: 211 ng/mL
- Activity (Influenza A virus [25]): Active
- half-life at 1 µM [14]: 147 min
- CLint [15]: 9.4 µL/min/mg

Structure (SMILES): O=C1c2c(O)c(=O)ccn2N([C@H]2c3ccccc3COc3c2ccc(F)c3F)[C@@H]2COCCN12
- selectivity ratio [16]: 6460
- CC50 at 48 h [1]: 33.3 µM
- EC50 (Influenza A virus [17]): 5.16 nM

Structure (SMILES): O=C(O)Cc1ccccc1Nc1c(Cl)cccc1Cl [DICLOFENAC]
- CLint [3]: 246 µL/min/mg
- half-life at 1 µM [9]: 5.63 min
- half-life at 1 µM [14]: 40.3 min
- CLint [15]: 34.4 µL/min/mg

Structure (SMILES): CCOC(=O)Cc1ccc2c(c1)[C@H](N1[C@@H]3COCCN3C(=O)c3c(O)c(=O)ccn31)c1ccccc1CO2
- selectivity ratio [16]: > 1390
- CC50 at 48 h [1]: > 50 µM
- EC50 (Influenza A virus [17]): 36 nM

Structure (SMILES): O=C1c2c(O)c(=O)ccn2N([C@@H]2c3ccccc3OCc3c(F)cccc32)[C@@H]2COCCN12
- selectivity ratio [16]: > 5940
- CC50 at 48 h [1]: > 50 µM
- EC50 (Influenza A virus [17]): 8.41 nM

Structure (SMILES): O=C1c2c(O)c(=O)ccn2N([C@H]2c3ccccc3COc3ccccc32)[C@@H]2COCCN12
- selectivity ratio [16]: > 47200
- CC50 at 48 h [1]: > 50 µM
- EC50 (Influenza A virus [17]): 1.06 nM
